The text below walks through data of ChEMBL document CHEMBL3751697, “Enantiomeric 3-deaza-1',6'-isoneplanocin and its 3-bromo analogue: Synthesis by the Ullmann reaction and their antiviral properties” (Bioorg Med Chem Lett, 2016).

Calls of active or inactive are those of the source. The calls are words filed in the database; no cut-off is given here.

For data set [1], the system named is Ebolavirus. The data set can be described thus: Antiviral activity against Zaire ebolavirus infected in human HepG2 cells. The data set is classed as functional, cell-based. Conditions: Orthoebolavirus.
Data set [2] is described as follows: Cytotoxicity against human HepG2 cells. The data set is classed as cell-based.
In data set [3] the test system is Human betaherpesvirus 5. The data set can be described thus: Antiviral activity against Human cytomegalovirus. The data set is classed as functional, organism-based.
The test system of data set [4] is Measles morbillivirus. The experiment in a line: Antiviral activity against Measles virus. It is filed as functional, organism-based.
For data set [5], the system named is Enterovirus C. The data set can be described thus: Antiviral activity against Poliovirus. The data set is classed as functional, organism-based.
In data set [6] the test system is Punta Toro virus. The data set can be described thus: Antiviral activity against Punta Toro virus. The data set is classed as functional, organism-based.
For data set [7], the system named is Venezuelan equine encephalitis virus. The experiment in a line: Antiviral activity against Venezuelan equine encephalitis virus. The data set is classed as functional, organism-based.
In data set [8] the test system is Vaccinia virus. The experiment in a line: Antiviral activity against Vaccinia virus. The data set is classed as functional, organism-based. Conditions: Orthopoxvirus vaccinia.
The subject of data set [9] is West Nile virus. The data set can be described thus: Antiviral activity against West Nile virus. It is filed as functional, organism-based.
Data set [10] has as its system Lyssavirus rabies. The data set can be described thus: Antiviral activity against Rabies virus. The data set is classed as functional.
Data set [11] relates to Monkeypox virus. The data set can be described thus: Antiviral activity against Monkeypox virus. It is filed as functional, organism-based.
In data set [12] the test system is Ebolavirus. The data set can be described thus: Antiviral activity against Zaire ebolavirus infected in African monkey Vero cells. The data set is classed as functional, cell-based. As to conditions: Orthoebolavirus.
Data set [13] in a line: Cytotoxicity against African monkey Vero cells. It is filed as cell-based. As to conditions: chlorocebus sabaeus.
The nature of data set [14]: Selectivity index, ratio of CC50 for African monkey Vero cells to EC50 for Zaire ebolavirus. Conditions: read-out: Ratio CC50/EC50. The data set is classed as toxicity, cell-based.
The subject of data set [15] is Hepatitis B virus. The experiment in a line: Antiviral activity against Hepatitis B virus. It is filed as functional, organism-based.
Data set [16] deals with Norovirus. The experiment in a line: Antiviral activity against Norovirus. It is filed as functional.
Data set [17] deals with Rift Valley fever virus. The experiment in a line: Antiviral activity against Rift Valley fever virus. The data set is classed as functional, organism-based.
Data set [18] deals with Tacaribe virus. The experiment in a line: Antiviral activity against Tacaribe virus. It is filed as functional, organism-based. Conditions: Mammarenavirus tacaribeense.
Data set [19] concerns Dengue virus. The data set can be described thus: Antiviral activity against Dengue virus. The data set is classed as functional, organism-based.
Data set [20] has as its system Yellow fever virus. The data set can be described thus: Antiviral activity against Yellow fever virus. The data set is classed as functional, organism-based.
In data set [21] the test system is Hepatitis C virus. The experiment in a line: Antiviral activity against Hepatitis C virus. As to conditions: Hepacivirus hominis. It is filed as functional, organism-based.
Data set [22] has as its system Chikungunya virus. The experiment in a line: Antiviral activity against Chikungunya virus. It is filed as functional.
Data set [23] has as its system Japanese encephalitis virus. The experiment in a line: Antiviral activity against Japanese encephalitis virus. The data set is classed as functional, organism-based.
In data set [24] the test system is Nipah virus. The experiment in a line: Antiviral activity against Nipah virus. The data set is classed as functional, organism-based. As to conditions: Henipavirus nipahense.
The nature of data set [25]: Selectivity index, ratio of CC50 for human HepG2 cells to EC50 for Zaire ebolavirus. The data set is classed as toxicity, cell-based. As to conditions: read-out: Ratio CC50/EC50.

For `Nc1nccc2c1ncn2C1=C[C@H](CO)[C@@H](O)[C@H]1O`, the concentration for a half-maximal effect (EC50) is below 320 nM in [1], below 100 nM in data set [3] and below 380 nM in data set [4]. For the same molecule, it took 74100 nM to reach the 90% level in data set [1] (EC90). This molecule also had a CC50 in [2] above 100000 nM. For the same molecule, the outcome in [5], in data set [6], in data set [7], in data set [8], in data set [9] and in data set [10] was inactive. Also, in data set [11], the result was inactive.
For `Nc1ncc(Br)c2c1ncn2C1=C[C@@H](CO)[C@H](O)[C@@H]1O`, the concentration giving a half-maximal response (EC50) is 3510 nM in [12]; below 100 nM in data set [3]; 3250 nM in data set [15]; below 290 nM in data set [4]; 1300 nM in [16]. In addition, in [13], the CC50 is above 100000 nM. Besides, the selectivity ratio in data set [14] is above 28.5. Also, the outcome in data set [17], in data set [18], in data set [19], in data set [20], in data set [21] and in [22] was inactive. Besides, the outcome in [23] and in data set [24] was inactive.
In the case of `Nc1nccc2c1ncn2C1=C[C@@H](CO)[C@H](O)[C@@H]1O`, the concentration for a half-maximal effect (EC50) in data set [1] was below 320 nM; in data set [3], below 100 nM. Besides, the EC90 in data set [1] is below 320 nM. In data set [2], this molecule came in with a half-maximal cytotoxic concentration (CC50) above 100000 nM. For the same molecule, the result in [4], in data set [5], in [6], in data set [7], in data set [8] and in data set [9] was inactive. In addition, the outcome in [10] and in data set [11] was inactive.
`Nc1ncc(Br)c2c1ncn2[C@@H]1C=C(CO)[C@@H](O)[C@H]1O`: in [1], the concentration for a half-maximal effect (EC50) is below 320 nM and it took 3020 nM to reach the 90% level (EC90). Further, the midpoint of cytotoxicity in data set [2], the CC50, lay at 21100 nM. In data set [25], the selectivity ratio is above 67.
With `Nc1ncc(Br)c2c1ncn2C1=C[C@H](CO)[C@@H](O)[C@H]1O`, the concentration for a half-maximal effect (EC50) is below 100 nM in data set [12], below 100 nM in data set [3] and below 290 nM in data set [4]. In [13], the CC50 is above 100000 nM. Besides, the selectivity ratio in [14] was above 1000. Further, the result in data set [17], in data set [18], in data set [19], in data set [20], in data set [21] and in [22] was inactive. The result in data set [23] and in data set [24] was inactive.
